#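 1) Cells in 96-well plates. 2) Compound, 48 h, 5 concentrations. 3) Linear interpolation between surrounding doses. 4) Unreached endpoint = highest concentration. Abbreviation: GI50, concentration required for 50% inhibition of growth.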 Active and inactive are the calls of the source. No stated cut-off is given here; in the data, active = GI50 up to about 1.1 µM and inactive = higher.
# How the values were obtained:
# Assay in all cases: DTP human tumour cell line panel, 48 h
# [1] = system: BT-549
# [2] = system: EKVX
# [3] = system: HT-29
# [4] = system: IGROV-1
# [5] = system: LOX IMVI
# [6] = system: M14
# [7] = system: Malme-3M
# [8] = system: NCI-H23
# [9] = system: RPMI-8226
# [10] = system: RXF 393
# [11] = system: SF-295
# [12] = system: SF-539
# [13] = system: SK-MEL-28
# [14] = system: SK-MEL-5
# [15] = system: SK-OV-3
# [16] = system: SW-620
# [17] = system: T47D
# [18] = system: TK-10
# [19] = system: U-251
# [20] = system: UACC-62
SMILES,GI50 [1],GI50 [2],GI50 [3],GI50 [4],GI50 [5],GI50 [6],GI50 [7],GI50 [8],GI50 [9],GI50 [10],GI50 [11],GI50 [12],GI50 [13],GI50 [14],GI50 [15],GI50 [16],GI50 [17],GI50 [18],GI50 [19],GI50 [20]
CCOC(=O)/C(=C\c1cccc(C)c1)C(C)=O,10.8 µM (inactive),48 µM (inactive),17.9 µM (inactive),15.4 µM (inactive),13.6 µM (inactive),17.4 µM (inactive),14.1 µM (inactive),17 µM (inactive),8.17 µM (inactive),11.5 µM (inactive),23.4 µM (inactive),16.7 µM (inactive),12.6 µM (inactive),16.6 µM (inactive),25.8 µM (inactive),12.5 µM (inactive),11.1 µM (inactive),16.3 µM (inactive),13.1 µM (inactive),16.5 µM (inactive)
CNCCCNC(=S)Cn1cc(C)c(=O)[nH]c1=O,> 61.9 µM (inactive),> 60.8 µM (inactive),> 35.9 µM (inactive),> 39.5 µM (inactive),> 34.2 µM (inactive),> 53 µM (inactive),> 100 µM (inactive),> 41.8 µM (inactive),> 100 µM (inactive),> 60.3 µM (inactive),> 27 µM (inactive),> 20.1 µM (inactive),> 56.9 µM (inactive),> 21.3 µM (inactive),> 54.8 µM (inactive),> 56.4 µM (inactive),> 100 µM (inactive),> 64.7 µM (inactive),> 47.5 µM (inactive),> 47.4 µM (inactive)
CO[C@@]12C[C@@H](CNC(=O)c3cc(Br)c[nH]3)O[C@@H]1NC(=O)N2,> 100 µM (inactive),> 100 µM (inactive),> 100 µM (inactive),> 100 µM (inactive),> 100 µM (inactive),> 100 µM (inactive),> 100 µM (inactive),> 100 µM (inactive),> 100 µM (inactive),> 100 µM (inactive),> 100 µM (inactive),> 100 µM (inactive),> 100 µM (inactive),> 100 µM (inactive),> 100 µM (inactive),> 100 µM (inactive),> 100 µM (inactive),> 100 µM (inactive),> 100 µM (inactive),> 100 µM (inactive)
CCCCCCCCC[C@@H]1C[C@@H]2CCC3C(C(=O)OC)=C(C)N=C(N1)N32 (stereo not given in full),10.6 µM (inactive),10.5 µM (inactive),4.25 µM (inactive),4.72 µM (inactive),9.86 µM (inactive),5.46 µM (inactive),10.5 µM (inactive),3.85 µM (inactive),6 µM (inactive),2.64 µM (inactive),9.4 µM (inactive),3.29 µM (inactive),21 µM (inactive),5.32 µM (inactive),10.6 µM (inactive),15.6 µM (inactive),10.6 µM (inactive),13.2 µM (inactive),3.27 µM (inactive),4.52 µM (inactive)
N#CC1CNC(N)NC1N (stereo not given),> 100 µM (inactive),> 100 µM (inactive),> 100 µM (inactive),> 100 µM (inactive),> 100 µM (inactive),> 100 µM (inactive),> 100 µM (inactive),> 100 µM (inactive),> 100 µM (inactive),> 100 µM (inactive),> 100 µM (inactive),> 100 µM (inactive),> 100 µM (inactive),> 100 µM (inactive),> 100 µM (inactive),> 100 µM (inactive),> 100 µM (inactive),> 100 µM (inactive),> 100 µM (inactive),> 100 µM (inactive)
S=C(NN=C1NCCCCN1)Nc1ccc(Cl)cc1,64.3 µM (inactive),31.9 µM (inactive),16.2 µM (inactive),16 µM (inactive),11.7 µM (inactive),8.09 µM (inactive),17.1 µM (inactive),18.5 µM (inactive),7.83 µM (inactive),> 100 µM (inactive),13.7 µM (inactive),28.2 µM (inactive),31 µM (inactive),5.36 µM (inactive),15.1 µM (inactive),25.4 µM (inactive),39.8 µM (inactive),27.3 µM (inactive),7.71 µM (inactive),4.52 µM (inactive)
O=[N+]([O-])/C=C/c1ccc2ccccc2c1,2.74 µM (inactive),22.7 µM (inactive),2.53 µM (inactive),2.79 µM (inactive),1.87 µM (inactive),3.99 µM (inactive),15.6 µM (inactive),3.6 µM (inactive),0.372 µM (active),2.49 µM (inactive),3.99 µM (inactive),3.04 µM (inactive),2.23 µM (inactive),3.19 µM (inactive),2.57 µM (inactive),2.47 µM (inactive),0.692 µM (active),6.21 µM (inactive),1.92 µM (inactive),15.4 µM (inactive)

# — ChEMBL document CHEMBL1201862, “PubChem BioAssay data set” (2004)
